US12358954B2, “Capsid-modified rAAV vector compositions and methods therefor” (priority 2012, dated 2025)

Legend:
[1] = tested on: non-canonical NF-κB pathway (p100, p52); assay: Western blot of NF-κB pathway components in HeLa cells; format: cell-based, human
From the text: Western Blot Analyses. Homogenized lysates of the cell pellets from ˜2×10^6 HeLa cells or DCs, mock or pre-treated with the optimal concentration of NF-κB activators or inhibitors were used for sample preparation. Whole cell proteins were isolated using the RIPA lysis buffer (Sigma-Aldrich Co.) and cytoplasmic and nuclear proteins were extracted using a commercial kit (NE-PER Extraction Reagent Kit, Pierce Biotech, Rockford, Ill., USA) as per the manufacturer's protocol in the presence of a protease inhibitor cocktail (Halt™ Protease Inhibitor Cocktail Kit, Pierce Biotech). The protein extracts were boiled for 5 min under reducing conditions [SDS-sample buffer containing 62.5 mM Tris-HCl (pH 6.8 at 25° C.), 2% wt./vol. SDS, 10% glycerol, 50 mM DTT, 0.01% wt./vol. bromo-phenol blue (Cell Signaling Technology, Inc.)] and stored at −86° C. until further analysis. Equal volumes of samples were run on 4-15% SDS-PAGE (Bio-Rad, Hercules, Calif., USA). […] The intensity of the protein bands was measured with Adobe Photoshop CS3 Software® and normalized to proteins levels from the housekeeping gene products used as loading controls.

[2] = tested on: pro-inflammatory cytokines and chemokines; assay: Gene-expression analysis of innate immune response in liver by RT-PCR; format: in vivo, C57BL/6J mice
Procedure: Recombinant AAV Vector Transduction Studies in Vivo. Groups of 6-weeks old normal C57BL/6J mice (Jackson Laboratories, Bar Harbor, Me., USA) were administered intra-peritoneally, with a single dose (20 mg/kg) of NF-κB inhibitor Bay11, in a 200-μL volume diluted in DMSO (day 0). Animals injected with only the DMSO carrier solvent were considered as baseline (mock) group (n=75) and animals injected with Bay11 were the test group (n=75). At this point, the animals from mock and Bay11 groups were randomized to receive either phosphate buffered saline (PBS, pH 7.4) or WT-AAV or TM-AAV vectors (n=25 mice each group). On day 1, ˜1×10^11 viral genome (vg) particles of WT-AAV2-EGFP or TM-AAV2-EGFP vectors or PBS were administered intravenously via the tail vein. To measure the modulation of immune response to AAV, 5 animals each from PBS-, WT-AAV-, or TM-AAV vector-injected groups were sacrificed by carbon-dioxide inhalation at different time points post-vector administration (2, 6, 10, 24 hrs and day 10). Hepatic lobes were collected, cross-sectioned and mounted on slides to study the effect of Bay11 on AAV-mediated EGFP expression (from day 10 mice). […]
Gene-Expression Analysis of Innate Immune Response by RT-PCR Assay. […] Data were captured and analyzed using an ABI Prism 7500 Sequence Detection System with v1.1 Software (Applied Biosystems). The baseline was determined automatically for the 18S rRNA and for other genes. Thresholds were determined manually for all genes. Gene expression was measured by the comparative threshold cycle (Ct) method. The parameter threshold cycle (Ct) was defined as the cycle number at which the reporter fluorescence generated by the cleavage of the probe passed a fixed threshold above baseline. […] Relative gene expression was determined for each group of treated and untreated animals and values >2.6 and <0.38 were considered as significant up-regulations and down-regulations between the groups and was calculated by assessing the variability in the 96 well plates used to measure specific gene expression.

Cc1ccc(S(=O)(=O)/C=C/C#N)cc1 [Bay11, Bay11-7082]
AAV-induced increase of p100 and p52 [1]: ablated
levels of pro-inflammatory cytokines or chemokines (IL-1α, IL-6, TNFα, IL-12α, KC, RANTES) in liver ([2]; Bay11 20 mg/kg i.p. 12 hrs prior to vector, 2 hrs post-vector): significantly reduced
decrease in AAV vector-induced production of pro-inflammatory cytokines and chemokines ([2]; Bay11 prior to gene transfer, C57BL/6 mice): up to 7 fold
up-regulation of type I interferon expression by WT-AAV and TM-AAV vectors ([2]; mouse, in vivo): unaffected
